This series is described as follows: xn = mol fraction of the nth substance listed. The note with it: 298.15 K, 101 kPa, Liquid, holographic laser-interferometry using flow junction cell.

As to `CCCCCl` [1-chlorobutane] + CCCO, the binary diffusion coefficient worked out at 1.2e-09 m2/s (x1 = 0.013); 1.18e-09 m2/s (x1 = 0.1); 1.13e-09 m2/s (x1 = 0.3); 1.09e-09 m2/s (x1 = 0.5); 1.14e-09 m2/s (x1 = 0.7); 1.45e-09 m2/s (x1 = 0.9). For the same molecule, where the note is “x1 = 0.97”, the binary diffusion coefficient was 2.51e-09 m2/s.
With `CC(C)=O` [acetone] + CCCCO, the binary diffusion coefficient was found to be 9.5e-10 m2/s (x1 = 0.0125); 1e-09 m2/s (x1 = 0.1); 1.07e-09 m2/s (x1 = 0.2); 1.13e-09 m2/s (x1 = 0.3); 1.29e-09 m2/s (x1 = 0.4); 1.38e-09 m2/s (x1 = 0.5). Also, the binary diffusion coefficient reads like this: (x1 = 0.6) 1.49e-09 m2/s; (x1 = 0.7) 1.72e-09 m2/s; (x1 = 0.8) 1.85e-09 m2/s; (x1 = 0.9) 2.43e-09 m2/s; (x1 = 0.9915) 2.75e-09 m2/s; (x1 = 0.9925) 2.73e-09 m2/s.
For `CC(C)=O` [acetone] + CCCO, the binary diffusion coefficient reads like this: (x1 = 0.015) 1.14e-09 m2/s; (x1 = 0.1) 1.22e-09 m2/s; (x1 = 0.2) 1.33e-09 m2/s; (x1 = 0.3) 1.4e-09 m2/s; (x1 = 0.4) 1.49e-09 m2/s; (x1 = 0.5) 1.64e-09 m2/s. In addition, the binary diffusion coefficient is, setting by setting: (x1 = 0.6) 1.74e-09 m2/s; (x1 = 0.7) 1.98e-09 m2/s; (x1 = 0.8) 2.4e-09 m2/s; (x1 = 0.9) 2.67e-09 m2/s; (x1 = 0.985) 3.12e-09 m2/s.
Take `CC(C)=O` [acetone] + O: the binary diffusion coefficient by setting is: (x1 = 0.004) 1.25e-09 m2/s; (x1 = 0.1) 8e-10 m2/s; (x1 = 0.3) 6.3e-10 m2/s; (x1 = 0.5) 8.3e-10 m2/s; (x1 = 0.7) 1.63e-09 m2/s; (x1 = 0.9) 3.44e-09 m2/s. The binary diffusion coefficient (x1 = 0.975) was 4.62e-09 m2/s.
For `CCCO` [propan-1-ol] + O, the binary diffusion coefficient stood at 1.04e-09 m2/s (x1 = 0.002); 5.2e-10 m2/s (x1 = 0.05); 1.7e-10 m2/s (x1 = 0.1); 1e-10 m2/s (x1 = 0.2); 1.9e-10 m2/s (x1 = 0.4); 3.3e-10 m2/s (x1 = 0.6). The binary diffusion coefficient (x1 = 0.8) is 5e-10 m2/s and the binary diffusion coefficient (x1 = 0.9) is 5.3e-10 m2/s.

The record behind these values is the NIST ThermoML archive (doi:10.1016/j.fluid.2009.12.009).
